Experiments:
[1] = In vivo PAFC monitoring of Lymphazurin in blood circulation (ear microvessel) after tail vein injection; design: species or system mouse; settings: 200 μl of 1% solution into tail vein; 50-μm ear microvessel; 650 nm
From the text: In this experiment, a prototype PAFC system was used to detect Lymphazurin circulating in the blood vessels of a mouse ear.
The prototype PAFC system was built on the platform of an Olympus BX51 microscope (Olympus America, Inc.) and a tunable optical parametric oscillator (OPO) pumped by a Nd:YAG laser (Lotis Ltd., Minsk, Belarus). […] Laser energy was directed to the blood vessels using a conventional lens, or an optical fiber. PA waves emitted by the cells were detected by ultrasound transducers (unfocused Panametrics model XMS-310, 10 MHz; focused cylindrical Panametrics model V312-SM, 10 MHz, focused lengths of 6 mm, 12 mm, and 55 mm; and customized resonance transducers), and the ultrasound transducer outputs were conditioned by an amplifier (Panametrics model 5662, bandwidth 50 kHz-5 MHz; Panametrics model 5678, bandwidth 50 kHz-40 MHz; customized amplifiers with adjustable high and low frequency boundaries in the range to 50-200 KHz and 1-20 MHz, respectively; resonance bandwidth of 0.3-1.0 MHz). The amplifier output signals were recorded with a Boxcar data acquisition system (Stanford Research Systems, Inc.) and a Tektronix TDS 3032B oscilloscope, and were analyzed using standard and customized software. […] The signals from the oscilloscope screen were recorded with a digital camera (Sony, Inc.) and video camera (JVC, Inc.). […]

[2] = tested on: B16F10 cultured mouse melanoma cells; assay: Trypan blue exclusion assay after ICG labeling of melanoma cells; format: cell-based; settings: staining 30 min at 37° C., 5% CO2; data not shown
From the text: B16F10 cultured mouse melanoma cells (ATCC, Rockville, Md.) were used in this experiment. The cells were maintained using standard procedures (Ara et al. 1990, Weight et al. 2006, Zharov et al. 2006), including serial passage in phenol-free RPMI 1640 medium (Invitrogen, Carlsbad, Calif.) supplemented with 10% fetal bovine serum (FBS, Invitrogen). For comparison to the detection of unlabelled melanoma cells, the endogenous cell absorption was increased by staining with ICG (Akorn Inc., USA), a strongly absorbent dye in the NIR range, for 30 min at 37° C. and in the presence of 5% CO2.

clearance of Lymphazurin from the blood [1] [min]	SMILES	toxicity after labeling [2]
50	CCN(CC)c1ccc(C(=C2C=CC(=[N+](CC)CC)C=C2)c2cc(S(=O)(=O)[O-])ccc2S(=O)(=O)[O-])cc1.[Na+] [Lymphazurin, Isosulfan Blue]	–
–	CC1(C)C(/C=C/C=C/C=C/C=C2\N(CCCCS(=O)(=O)O)c3ccc4ccccc4c3C2(C)C)=[N+](CCCCS(=O)(=O)[O-])c2ccc3ccccc3c21 [ICG, Indocyanine Green]	No toxicity was observed

Source: patent publication US10342430B2, “Device and method for in vivo noninvasive magnetic manipulation of circulating objects in bioflows” (BioVentures, LLC, priority 2007, dated 2019)
